In ChEMBL document CHEMBL1156829 (Proc Natl Acad Sci U S A, 2008) one finds EC50 and CC50 data, which are given here for 27 compounds.

For data set [1], the system named is Plasmodium falciparum. The data set is described as follows: NOVARTIS: Inhibition of Plasmodium falciparum 3D7 (drug-susceptible) proliferation in erythrocyte-based infection assay. Type of data set: functional, organism-based. The note with it: Plasmodium falciparum, 3D7.
The subject of data set [2] is Plasmodium falciparum. The data set is described as follows: NOVARTIS: Inhibition of Plasmodium falciparum W2 (drug-resistant) proliferation in erythrocyte-based infection assay. The format is functional, organism-based. The following applies: Plasmodium falciparum, W2; read-out: EC50.
Data set [3] can be described thus: NOVARTIS: Cytotoxicity against human hepatocellular carcinoma cell line (Huh7). The format is toxicity, cell-based, Huh-7. The following applies: Huh7 cells (hepatocellular carcinoma cell line).

Structures are written as SMILES.

Consider `NCCCCCCNc1ccnc2cc(Cl)ccc12`, for which the EC50 turned out to be 288 nM in the data set with Plasmodium falciparum [1] and 132 nM with Plasmodium falciparum [2]. Besides, the CC50 in data set [3] is more than 10000 nM.
For `OCCNc1nc(Nc2ccccc2)nc2ccccc12`, in that order: 167 nM, 626 nM and 47500 nM.
For `COc1ccc(-c2nc(NC(=O)CS(=O)(=O)c3ccc(F)cc3)sc2C)cc1`, the results for the EC50 in the data set on Plasmodium falciparum [1] and with Plasmodium falciparum [2] were 212 nM and 560 nM, respectively. The CC50 in data set [3] came out at 44100 nM.
For `CCOC(=O)C1=C(C)N=c2sc(=Cc3cc(Cl)ccc3O)c(=O)n2C1c1ccc2c(c1)OCO2` (stereo unspecified), in that order: 4930 nM, 1310 nM and more than 100000 nM.
The like results for `O=C(COC(c1cccs1)c1cccnc1Cl)N1CCN(CCO)CC1` (stereo unspecified) were, in that order, more than 12500 nM, 1290 nM and more than 100000 nM.
For `CN1CCN(CCCNc2ccnc3cc4ccccc4cc23)CC1`, in that order: 24.1 nM, 78.5 nM and 5930 nM.
For `COc1cc2c(cc1C=C(C#N)c1cccc(C)c1)OCO2`, the EC50 was more than 9740 nM in the data set with Plasmodium falciparum [1] and 1310 nM in the data set on Plasmodium falciparum [2]. The compound also showed a CC50 in data set [3] of more than 100000 nM.
The like results for `COc1cc(C(C(=O)NCc2ccccc2)N(C(=O)c2snc(C(N)=O)c2N)c2ccc(C(C)C)cc2)cc(OC)c1OC` (stereo unspecified) were, in that order, 2450 nM, 1290 nM and more than 100000 nM.
The like results for `CCN1CCN(c2cc(C)c3cc(NC(=O)c4cccc([N+](=O)[O-])c4)ccc3n2)CC1` were, in that order, 96 nM, 267 nM and 20300 nM.
For `O=C(Nc1ccccc1F)NC1CC2CCCC(C1)N2CCc1ccccc1` (stereo unspecified), in that order: 440 nM, 140 nM and more than 10600 nM.
As to `COc1cc2nc(NCCN3CCOCC3)n3nc(-c4ccccc4)nc3c2cc1OC`, the concentration for a half-maximal effect (EC50) in the data set with Plasmodium falciparum [1] stood at 114 nM; with Plasmodium falciparum [2], 134 nM. Besides, the CC50 in data set [3] is more than 10000 nM.
The like results for `C=CCC(=O)NC1CCN(CC(O)CN(Cc2ccccc2)S(=O)(=O)c2ccccc2)C1` (stereo unspecified) were, in that order, 257 nM, 1330 nM and more than 100000 nM.
For `CCCN(CCC)CCCNc1ccc(C(=O)Nc2cccc(OC)c2)cc1[N+](=O)[O-]`, in that order: 159 nM, 320 nM and 24000 nM.
Regarding `CCC(CC)C(=O)Nc1c2c(nn1-c1cccc(Cl)c1)C[S+]([O-])C2` (stereo unspecified), the figures for the EC50 in the data set on Plasmodium falciparum [1] and in the data set on Plasmodium falciparum [2] were 11900 nM and 1300 nM, respectively. In addition, the half-maximal cytotoxic concentration (CC50) in data set [3] was more than 100000 nM.
For `CN(CCCNc1ccnc2cc(Cl)ccc12)C(=O)C12CC3CC(CC(C3)C1)C2`, in that order: 53 nM, 184 nM and 14100 nM.
For `COc1ccc2cc(CNC3CCN(Cc4ccccc4)CC3)c(=O)[nH]c2c1`, the EC50 in the data set with Plasmodium falciparum [1] was 671 nM; with Plasmodium falciparum [2] it was 856 nM. The compound further gave a CC50 in data set [3] of more than 65900 nM.
The like results for `COc1ccc(C=C2N=C(c3ccc(Cl)cc3)N(c3cc(Cl)ccc3C)C2=O)cc1OC` were, in that order, 3480 nM, 1320 nM and more than 100000 nM.
For `O=C(O)CS(=O)(=O)c1ccc(C(=O)NCC(c2cccnc2)N2CCOCC2)cn1` (stereo unspecified), in that order: more than 876 nM, 131 nM and more than 10000 nM.
As to `O=C(O)CCCNC(=O)C(O)(c1ccccc1)c1ccccc1`, the values for the EC50 in the data set on Plasmodium falciparum [1] and in the data set on Plasmodium falciparum [2] were more than 12500 nM and 1330 nM, respectively. Besides, the CC50 in data set [3] is more than 100000 nM.
The like results for `COc1ccc(CCNC(=O)CN(c2ccc(OC)c(OC)c2)S(=O)(=O)c2ccc(C)cc2)cc1OC` were, in that order, more than 12500 nM, 1330 nM and more than 100000 nM.
For `COc1ccccc1CNC(=O)CCn1c(=O)[nH]c2ccccc2c1=O`, in that order: 537 nM, 133 nM and more than 10000 nM.
Turning to `CCNC(=O)C1CCN(c2cccc3c2C(=O)N(C2CCCCCCC2)C3=O)CC1`, the EC50 was determined as 1750 nM in the data set on Plasmodium falciparum [1] and 1310 nM in the data set on Plasmodium falciparum [2]. The compound also yielded a CC50 in data set [3] of more than 100000 nM.
The like results for `COc1ccc2nc(Nc3nc(-c4ccccn4)cs3)sc2c1` were, in that order, 91.8 nM, 93.5 nM and 7310 nM.
For `CSc1ccc(/C=C/C(=O)NC(=O)c2ccccc2O)cc1`, in that order: 127 nM, 131 nM and more than 10000 nM.
The like results for `COc1ccc(-c2c[n+](CC(=O)c3ccccc3Cl)c3n2CCC3)cc1` were, in that order, 1070 nM, 1290 nM and more than 100000 nM.
Turning to `Oc1ccc(-c2ccccc2)cc1CN1CCCCC1`, the concentration for a half-maximal effect (EC50) in the data set with Plasmodium falciparum [1] is 1080 nM; with Plasmodium falciparum [2], 132 nM. The compound also came in with a CC50 in data set [3] of more than 10000 nM.
For `Cc1noc(-c2ccc(O)cc2O)c1-c1ccc2c(c1)OCCO2`, in that order: 248 nM, 204 nM and 15200 nM.
